Assay results reported in patent publication EP4711369A1, “1H-[1,2,3]TRIAZOLO[4,5-H]QUINAZOLINE COMPOUNDS AS PROTEIN KINASE INHIBITORS” (Chengdu Cynogen Bio-Pharmaceutical Technology Co., Ltd., priority 2023, dated 2024).

How the values were obtained:
CDK4/cyclin D1 = CDK4/cyclin D1 (Homo sapiens, UniProt P11802); test: Assay of kinase activity (ADP-Glo); type: biochemical; conditions: kinase inhibitory activity
Method in brief: (§1)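 Kinase preincubated 10 min with compound in 50 mM Hepes, 10 mM MgCl2, 0.01% Brij35, 2 mM DTT, then substrate/ATP added for 60 min at 25 °C. ADP formed measured by ADP-Glo luminescence; IC50 by nonlinear concentration-response fitting.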

CDK2/cyclin E = CDK2/cyclin E (Homo sapiens, UniProt P24941); test: Assay of kinase activity (ADP-Glo); type: biochemical; conditions: kinase inhibitory activity, read-out: CDK2/E1 IC50
Method in brief: as §1

[1] = system: human gastric cancer MKN1 cells; test: Assay of cell proliferation (CellTiter-Glo); type: cell-based; conditions: Homo sapiens, MKN-1, 144 h; MNK1, 6 days; read-out: MKN1 IC50 of cell proliferation inhibitory activity
Method in brief: (§2)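 Cells seeded per line at growth-adapted densities, treated 6 days at 37 °C/5% CO2 with nine 3-fold dilutions (10 µM to 0.1 nM final, 0.5% DMSO). Viability by CellTiter-Glo luminescence; IC50 from four-parameter fit.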

[2] = system: human breast cancer HCC1806 cells; test: Assay of cell proliferation (CellTiter-Glo); type: cell-based; conditions: Homo sapiens, 144 h, 6 days, read-out: HCC1806 IC50 of cell proliferation inhibitory activity
Method in brief: as §2

[3] = system: human acute myeloid leukemia MV-4-11 cells; test: Assay of cell proliferation (CellTiter-Glo); type: cell-based; conditions: MV4-11, 144 h, 6 days, read-out: MV-4-11 IC50 of cell proliferation inhibitory activity
Method in brief: as §2

[4] = system: Human ovarian cancer OVCAR3 cells; test: Assay of cell proliferation (CellTiter-Glo); type: cell-based; conditions: Homo sapiens, OVCAR-3, 144 h, 6 days, read-out: OVCAR3 IC50 of cell proliferation inhibitory activity
Method in brief: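 OVCAR3 cells, 2000/well in RPMI 1640 with 20% FBS, treated with nine 3-fold dilutions from 10 µM to 0.1 nM (0.5% DMSO) for 6 days at 37 °C. Viability by CellTiter-Glo luminescence; IC50 by four-parameter fit.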

CDK6/cyclin D3 = CDK6/cyclin D3 (Homo sapiens, UniProt Q00534); test: Assay of kinase activity (ADP-Glo); type: biochemical; conditions: kinase inhibitory activity
Method in brief: (§3)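 ADP production quantified by luminescence after 60 min kinase reaction at 25 °C, started with substrate/ATP following 10 min enzyme-compound preincubation. Buffer: 50 mM Hepes, 10 mM MgCl2, 0.01% Brij35, 2 mM DTT. IC50 obtained by nonlinear curve fitting of inhibition data.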

CDK9/cyclin T1 = CDK9/cyclin T1 (Homo sapiens, UniProt P50750); test: Assay of kinase activity (ADP-Glo); type: biochemical; conditions: kinase inhibitory activity
Method in brief: as §3

Sequence of CDK4/cyclin D1 (P11802 whole entry, species assumed): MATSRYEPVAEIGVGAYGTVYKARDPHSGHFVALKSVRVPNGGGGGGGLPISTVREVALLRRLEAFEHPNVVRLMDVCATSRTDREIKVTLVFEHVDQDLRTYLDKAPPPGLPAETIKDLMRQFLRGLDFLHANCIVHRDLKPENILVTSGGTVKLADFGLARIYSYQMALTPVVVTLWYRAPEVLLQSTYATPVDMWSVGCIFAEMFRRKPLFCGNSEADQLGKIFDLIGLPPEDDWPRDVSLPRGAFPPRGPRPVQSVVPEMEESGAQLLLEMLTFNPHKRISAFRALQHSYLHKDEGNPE
Sequence of CDK4/cyclin D1 (P24385 whole entry partner, species assumed): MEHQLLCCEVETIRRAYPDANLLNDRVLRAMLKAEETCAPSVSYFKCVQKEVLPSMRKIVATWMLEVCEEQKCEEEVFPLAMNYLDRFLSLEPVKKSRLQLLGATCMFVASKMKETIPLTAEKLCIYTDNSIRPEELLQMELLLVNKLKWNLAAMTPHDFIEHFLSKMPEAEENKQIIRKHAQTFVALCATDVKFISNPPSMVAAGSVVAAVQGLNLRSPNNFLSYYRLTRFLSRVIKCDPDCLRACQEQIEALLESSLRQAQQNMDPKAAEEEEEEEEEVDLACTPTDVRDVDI
Sequence of CDK9/cyclin T1 (P50750 whole entry, species assumed): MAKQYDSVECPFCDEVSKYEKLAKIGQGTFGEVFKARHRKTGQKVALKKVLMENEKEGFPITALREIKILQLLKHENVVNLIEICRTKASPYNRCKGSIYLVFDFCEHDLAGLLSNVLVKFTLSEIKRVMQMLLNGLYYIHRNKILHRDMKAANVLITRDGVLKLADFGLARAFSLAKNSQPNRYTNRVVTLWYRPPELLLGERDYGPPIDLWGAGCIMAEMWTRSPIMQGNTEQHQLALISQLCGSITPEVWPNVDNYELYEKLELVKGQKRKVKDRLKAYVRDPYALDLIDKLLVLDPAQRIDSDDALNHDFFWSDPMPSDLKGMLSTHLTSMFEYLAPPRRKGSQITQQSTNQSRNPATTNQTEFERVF
Sequence of CDK9/cyclin T1 (O60563 whole entry partner, species assumed): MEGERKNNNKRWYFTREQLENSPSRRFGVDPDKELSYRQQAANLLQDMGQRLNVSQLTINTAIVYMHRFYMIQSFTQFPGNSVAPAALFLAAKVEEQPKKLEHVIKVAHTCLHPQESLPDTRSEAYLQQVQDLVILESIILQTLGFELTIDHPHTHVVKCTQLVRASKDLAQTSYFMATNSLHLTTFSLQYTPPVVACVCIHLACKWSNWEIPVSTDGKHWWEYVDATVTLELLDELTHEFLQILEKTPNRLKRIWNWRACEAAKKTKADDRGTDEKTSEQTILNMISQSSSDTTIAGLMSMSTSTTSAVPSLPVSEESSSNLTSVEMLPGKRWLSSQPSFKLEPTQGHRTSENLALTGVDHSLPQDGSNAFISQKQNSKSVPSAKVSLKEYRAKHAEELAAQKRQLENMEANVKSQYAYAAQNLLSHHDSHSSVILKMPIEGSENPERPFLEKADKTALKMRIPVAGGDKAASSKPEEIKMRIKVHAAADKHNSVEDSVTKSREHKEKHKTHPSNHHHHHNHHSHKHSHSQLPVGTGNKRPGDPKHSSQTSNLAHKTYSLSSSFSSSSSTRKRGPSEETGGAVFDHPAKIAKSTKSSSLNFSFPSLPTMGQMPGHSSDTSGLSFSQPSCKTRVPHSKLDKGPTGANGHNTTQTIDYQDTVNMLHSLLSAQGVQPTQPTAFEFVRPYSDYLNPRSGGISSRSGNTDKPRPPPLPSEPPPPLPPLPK
Sequence of CDK6/cyclin D3 (Q00534 whole entry, species assumed): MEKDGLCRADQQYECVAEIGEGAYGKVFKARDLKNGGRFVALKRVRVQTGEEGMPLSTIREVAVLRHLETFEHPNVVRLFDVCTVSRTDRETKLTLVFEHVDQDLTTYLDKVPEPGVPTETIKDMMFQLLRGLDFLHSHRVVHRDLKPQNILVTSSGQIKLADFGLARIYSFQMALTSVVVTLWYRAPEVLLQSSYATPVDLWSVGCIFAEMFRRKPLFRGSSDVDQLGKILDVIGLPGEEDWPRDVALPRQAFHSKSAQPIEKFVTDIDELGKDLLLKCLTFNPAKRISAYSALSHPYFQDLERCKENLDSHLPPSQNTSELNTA
Sequence of CDK6/cyclin D3 (P30281 whole entry partner, species assumed): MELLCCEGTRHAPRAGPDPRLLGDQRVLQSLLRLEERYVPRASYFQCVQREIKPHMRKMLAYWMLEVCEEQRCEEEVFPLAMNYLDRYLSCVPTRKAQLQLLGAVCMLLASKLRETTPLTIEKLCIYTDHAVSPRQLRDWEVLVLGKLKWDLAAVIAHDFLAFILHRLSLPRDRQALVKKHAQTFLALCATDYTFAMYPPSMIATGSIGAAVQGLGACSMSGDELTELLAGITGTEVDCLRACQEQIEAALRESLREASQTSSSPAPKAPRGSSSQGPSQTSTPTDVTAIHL

SMILES	IC50 (CDK4/cyclin D1)	IC50 (CDK2/cyclin E)	IC50 [1]	IC50 [2]	IC50 [3]	IC50 [4]	IC50 (CDK6/cyclin D3)	IC50 (CDK9/cyclin T1)
CC(C)n1nnc2ccc3cnc(Nc4ccc(C(=O)N5CCNC(C)(C)C5)cc4)nc3c21 [Example I-22, (3,3-Dimethylpiperazin-1-yl)(4-((1-isopropyl-1H-[1,2,3]triazolo[4,5-H]quinazolin-8-yl)amino)phenyl)metha none]	4 nM	2 nM	56 nM	115 nM	5 nM	27 nM	23 nM	4 nM
CC(C)n1nnc2ccc3cnc(Nc4ccc(C(=O)N5C[C@@H](C)N[C@@H](C)C5)cc4)nc3c21 [Example I-23, ((3R,5S)-3,5-dimethylpiperazin-1-yl)(4-((1-isopropyl-1H-[1,2,3]triazolo[4,5-H]quinazolin-8-yl)amino)phenyl)metha none]	3 nM	0.4 nM	57 nM	112 nM	4 nM	73 nM	35 nM	24 nM
CC(C)n1nnc2ccc3cnc(Nc4ccc(C(=O)N5CC6CC(C5)N6)cc4)nc3c21 [Example I-24, (3,6-Diazabicyclo[3.1.1]heptan-3-yl)(4-((1-isopropyl-1H-[1,2,3]triazolo[4,5-H]quinazolin-8-yl)amino)phenyl)metha none]	1 nM	0.1 nM	6 nM	44 nM	3 nM	18 nM	26 nM	8 nM
CC(C)n1nnc2ccc3cnc(Nc4ccc(C(=O)N5CC6CCC(C5)N6)cc4)nc3c21 [Example I-25, (3,8-Diazabicyclo[3.2.1]octan-3-yl)(4-((1-isopropyl-1H-[1,2,3]triazolo[4,5-H]quinazolin-8-yl)amino)phenyl)metha none]	1 nM	0.2 nM	13 nM	85 nM	4 nM	33 nM	29 nM	16 nM
CC(C)n1nnc2ccc3cnc(Nc4ccc(C(=O)N5CCS(=O)(=O)CC5)cc4)nc3c21 [Example I-32, (1,1-Dioxothiomorpholino)(4-((1-isopropyl-1H-[1,2,3]triazolo[4,5-H]quinazolin-8-yl)amino)phenyl)metha none]	15 nM	3 nM	44 nM	167 nM	9 nM	80 nM	230 nM	315 nM
CC(C)n1nnc2ccc3cnc(Nc4ccc(C(=O)N5CCCNCC5)cc4)nc3c21 [Example I-33, (1,4-Diazepan-1-yl)(4-((1-isopropyl-1H-[1,2,3]triazolo[4,5-H]quinazolin-8-yl)amino)phenyl)metha none]	1 nM	0.2 nM	3 nM	19 nM	2 nM	5 nM	26 nM	45 nM
CC(C)n1nnc2ccc3cnc(Nc4ccc(C(=O)N5CCCN(C)CC5)cc4)nc3c21 [Example I-34, (4-((1-Isopropyl-1H-[1,2,3]triazolo[4,5-H]quinazolin-8-yl)amino)phenyl)(4-methyl-1,4-diazepan-1-yl)methanone]	0.7 nM	0.09 nM	5 nM	6 nM	2 nM	7 nM	19 nM	2 nM
C[C@H](CO)n1nnc2ccc3cnc(Nc4ccc(C(=O)N5CCOCC5)cc4)nc3c21 [Example I-51, (R)-(4-((1-(1-Hydroxypropan-2-yl)-1H-[1,2,3]triazolo[4,5-H]quinazolin-8-yl)amino)phenyl)(morpholino)methanone]	7 nM	2 nM	100 nM	441 nM	51 nM	301 nM	149 nM	122 nM
C[C@@H](n1nnc2ccc3cnc(Nc4ccc(C(=O)N5CC[C@H](N)C5)cc4)nc3c21)C(C)(C)O [Example I-54, ((S)-3-Aminopyrrolidin-1-yl)(4-((1-((R)-3-hydroxy-3-methylbutan-2-yl)-1H-[1,2,3]triazolo[4,5-h]quinazolin-8-yl)amino)phenyl)methanone]	2 nM	1 nM	49 nM	268 nM	7 nM	192 nM	16 nM	8 nM
CC(C)N[C@H]1CCN(C(=O)c2ccc(Nc3ncc4ccc5nnn([C@H](C)C(C)(C)O)c5c4n3)cc2)C1 [Example I-55, (4-((1-((R)-3-hydroxy-3-methylbutan-2-yl)-1H-[1,2,3]triazolo[4,5-H]quinazolin-8-yl)amino)phenyl)((S)-3-(isopropylamino)pyrrolidin-1-yl)methanone]	2 nM	0.7 nM	15 nM	80 nM	5 nM	31 nM	18 nM	6 nM
C[C@@H](n1nnc2ccc3cnc(Nc4ccc(C(=O)N5CCNCC5)cc4)nc3c21)C(C)(C)O [Example I-56, (R)-(4-((1-(3-Hydroxy-3-methylbutan-2-yl)-1H-[1,2,3]triazolo[4,5-H]quinazolin-8-yl)amino)phenyl)(piperazin-1-yl)methanone]	1 nM	0.8 nM	81 nM	365 nM	11 nM	275 nM	4 nM	15 nM
C[C@@H](n1nnc2ccc3cnc(Nc4ccc(C(=O)N5CCN(C)CC5)cc4)nc3c21)C(C)(C)O [Example I-57, (R)-(4-((1-(3-Hydroxy-3-methylbutan-2-yl)-1H-[1,2,3]triazolo[4,5-H]quinazolin-8-yl)amino)phenyl)(4-methylpiperazin-1-yl)methanone]	1 nM	0.9 nM	17 nM	465 nM	11 nM	32 nM	4 nM	23 nM
C[C@@H](n1nnc2ccc3cnc(Nc4ccc(C(=O)N5CCOCC5)cc4)nc3c21)C(C)(C)O [Example I-58, (R)-(4-((1-(3-Hydroxy-3-methylbutan-2-yl)-1H-[1,2,3]triazolo[4,5-H]quinazolin-8-yl)amino)phenyl)(morpholino)methanone]	2 nM	1 nM	90 nM	656 nM	19 nM	313 nM	9 nM	19 nM
C[C@@H](n1nnc2ccc3cnc(Nc4ccc(C(=O)N5CCS(=O)(=O)CC5)cc4)nc3c21)C(C)(C)O [Example I-59, (R)-(1,1-Dioxothiomorpholino)(4-((1-(3-hydroxy-3-methylbutan-2-yl)-1H-[1,2,3]triazolo[4,5-H]quinazolin-8-yl)amino)phenyl)methanone]	2 nM	1 nM	127 nM	543 nM	18 nM	389 nM	15 nM	46 nM
C[C@@H](n1nnc2ccc3cnc(Nc4ccc(C(=O)N5CCCNCC5)cc4)nc3c21)C(C)(C)O [Example I-60, (R)-(1,4-Diazepan-1-yl)(4-((1-(3-hydroxy-3-methylbutan-2-yl)-1H-[1,2,3]triazolo[4,5-H]quinazolin-8-yl)amino)phenyl)methanone]	1 nM	0.8 nM	41 nM	98 nM	12 nM	88 nM	3 nM	19 nM
C[C@@H](n1nnc2ccc3cnc(Nc4ccc(C(=O)N5CCCN(C)CC5)cc4)nc3c21)C(C)(C)O [Example I-61, (R)-(4-((1-(3-Hydroxy-3-methylbutan-2-yl)-1H-[1,2,3]triazolo[4,5-H]quinazolin-8-yl)amino)phenyl)(4-methyl-1,4-diazepan-1-yl)methanone]	1 nM	0.9 nM	8 nM	8 nM	4 nM	11 nM	2 nM	16 nM
C[C@@]1(O)CCC[C@H]1n1nnc2ccc3cnc(Nc4ccc(C(=O)N5CC[C@H](N)C5)cc4)nc3c21 [Example I-62, ((S)-3-Aminopyrrolidin-1-yl)(4-((1-((1R,2R)-2-hydroxy-2-methylcyclopentyl)-1H-[1,2,3]triazolo[4,5-H]quinazolin-8-yl)amino)phenyl)methanone]	0.5 nM	0.08 nM	8 nM	54 nM	5 nM	28 nM	4 nM	3 nM
